Assay results taken from US12077503B2, “Substituted cyclic amides and their use as herbicides” (FMC CORPORATION, priority 2015, dated 2024).

How the values were obtained:
Experiment in all cases: Test C preemergence
Format in all cases: in vivo
Details in all cases: scale 0 to 100, 0 no effect, 100 complete control
[1] = system: waterhemp (common waterhemp, Amaranthus rudis)
Excerpt: (§1) Seeds of plant species selected from blackgrass (Alopecurus myosuroides), ryegrass, Italian (Italian ryegrass, Lolium multiflorum), wheat (winter wheat, Triticum aestivum), Galium (catchweed bedstraw, Galium aparine), corn (Zea mays), crabgrass, large (large crabgrass, Digitaria sanguinalis), foxtail, giant (giant foxtail, Setaria faberii), johnsongrass (Sorghum halepense), lambsquarters (Chenopodium album), morningglory (Ipomoea coccinea), nutsedge, yellow (yellow nutsedge, Cyperus esculentus), pigweed (Amaranthus retroflexus), ragweed (common ragweed, Ambrosia elatior), soybean (Glycine max), barnyardgrass (Echinochloa crus-galli), oilseed rape (Brassica napus), waterhemp (common waterhemp, Amaranthus rudis) and velvetleaf (Abutilon theophrasti) were planted into a blend of loam soil and sand and treated preemergence with test chemicals formulated in a non-phytotoxic solvent mixture which included a surfactant.
(§2) At the same time, plants selected from these crop and weed species and also Kochia (Kochia scoparia), oat, wild (wild oat, Avena fatua), and chickweed (common chickweed, Stellaria media) were planted in pots containing Sunshine Redi-Earth® planting medium comprising spaghnum peat moss, vermiculite, starter nutrients and dolomitic limestone and treated with postemergence applications of test chemicals formulated in the same manner. Plants ranged in height from 2 to 18 cm (1- to 4-leaf stage) for postemergence treatments. Treated plants and controls were maintained in a greenhouse for 13 to 15 d, after which time all species were compared to controls and visually evaluated. Plant response ratings, summarized in Table C, are based on a scale of 0 to 100 where 0 is no effect and 100 is complete control. A dash (-) response means no test result.

[2] = system: barnyardgrass (Echinochloa crus-galli)
Excerpt: as §1, §2

[3] = system: oilseed rape (Brassica napus)
Excerpt: as §1, §2

[4] = system: wheat (winter wheat, Triticum aestivum)
Excerpt: as §1, §2

[5] = system: foxtail, giant (giant foxtail, Setaria faberii)
Excerpt: as §1, §2

[6] = system: lambsquarters (Chenopodium album)
Excerpt: as §1, §2

[7] = system: ragweed (common ragweed, Ambrosia elatior)
Excerpt: as §1, §2

[8] = system: crabgrass, large (large crabgrass, Digitaria sanguinalis)
Excerpt: as §1, §2

[9] = system: nutsedge, yellow (yellow nutsedge, Cyperus esculentus)
Excerpt: as §1, §2

[10] = system: ryegrass, Italian (Italian ryegrass, Lolium multiflorum)
Excerpt: as §1, §2

corn (Zea mays) = system: corn (Zea mays)
Excerpt: as §1, §2

[11] = system: velvetleaf (Abutilon theophrasti)
Excerpt: as §1, §2

soybean (Glycine max) = system: soybean (Glycine max)
Excerpt: as §1, §2

[12] = system: Galium (catchweed bedstraw, Galium aparine)
Excerpt: as §1, §2

[13] = system: pigweed (Amaranthus retroflexus)
Excerpt: as §1, §2

[14] = system: morningglory (Ipomoea coccinea)
Excerpt: as §1, §2

[15] = system: blackgrass (Alopecurus myosuroides)
Excerpt: as §1, §2

## CN1CC(c2ccc(C(F)(F)F)c(F)c2)C(C(=O)Nc2cccc(F)c2F)C1=O (stereo not drawn) [Compound 396]
[1]; 62 g ai/ha
  Plant response rating, Waterhemp: 90
[1]; 125 g ai/ha
  Plant response rating, Waterhemp: 95
[1]; 250 g ai/ha
  Plant response rating, Waterhemp: 95
[2]; 31 g ai/ha
  Plant response rating, Barnyardgrass: 85
[2]; 62 g ai/ha
  Plant response rating, Barnyardgrass: 95
[2]; 125 g ai/ha
  Plant response rating, Barnyardgrass: 98
[2]; 250 g ai/ha
  Plant response rating, Barnyardgrass: 98
[3]; 31 g ai/ha
  Plant response rating, Oilseed Rape: 30
[3]; 62 g ai/ha
  Plant response rating, Oilseed Rape: 70
[3]; 125 g ai/ha
  Plant response rating, Oilseed Rape: 80
[3]; 250 g ai/ha
  Plant response rating, Oilseed Rape: 85
[4]; 62 g ai/ha
  Plant response rating, Wheat: 10
[4]; 125 g ai/ha
  Plant response rating, Wheat: 70
[4]; 250 g ai/ha
  Plant response rating, Wheat: 90
[5]; 31 g ai/ha
  Plant response rating, Foxtail, Giant: 95
[5]; 62 g ai/ha
  Plant response rating, Foxtail, Giant: 98
[5]; 125 g ai/ha
  Plant response rating, Foxtail, Giant: 98
[5]; 250 g ai/ha
  Plant response rating, Foxtail, Giant: 98
[6]; 31 g ai/ha
  Plant response rating, Lambsquarters: 50
[6]; 62 g ai/ha
  Plant response rating, Lambsquarters: 75
[6]; 125 g ai/ha
  Plant response rating, Lambsquarters: 70
[6]; 250 g ai/ha
  Plant response rating, Lambsquarters: 98
[7]; 31 g ai/ha
  Plant response rating, Ragweed: 65
[7]; 62 g ai/ha
  Plant response rating, Ragweed: 80
[7]; 125 g ai/ha
  Plant response rating, Ragweed: 85
[7]; 250 g ai/ha
  Plant response rating, Ragweed: 85
[8]; 31 g ai/ha
  Plant response rating, Crabgrass, Large: 95
[8]; 62 g ai/ha
  Plant response rating, Crabgrass, Large: 98
[8]; 125 g ai/ha
  Plant response rating, Crabgrass, Large: 98
[8]; 250 g ai/ha
  Plant response rating, Crabgrass, Large: 100
[9]; 31 g ai/ha
  Plant response rating, Nutsedge, Yellow: 0
[9]; 62 g ai/ha
  Plant response rating, Nutsedge, Yellow: 0
[9]; 125 g ai/ha
  Plant response rating, Nutsedge, Yellow: 30
[9]; 250 g ai/ha
  Plant response rating, Nutsedge, Yellow: 20
[10]; 62 g ai/ha
  Plant response rating, Ryegrass, Italian: 55
[10]; 125 g ai/ha
  Plant response rating, Ryegrass, Italian: 30
[10]; 250 g ai/ha
  Plant response rating, Ryegrass, Italian: 80
Corn (Zea mays); 31 g ai/ha
  Plant response rating, Corn: 0
Corn (Zea mays); 62 g ai/ha
  Plant response rating, Corn: 50
Corn (Zea mays); 125 g ai/ha
  Plant response rating, Corn: 65
Corn (Zea mays); 250 g ai/ha
  Plant response rating, Corn: 75
[11]; 62 g ai/ha
  Plant response rating, Velvetleaf: 40
[11]; 125 g ai/ha
  Plant response rating, Velvetleaf: 65
[11]; 250 g ai/ha
  Plant response rating, Velvetleaf: 60
Soybean (Glycine max); 62 g ai/ha
  Plant response rating, Soybean: 0
Soybean (Glycine max); 125 g ai/ha
  Plant response rating, Soybean: 0
Soybean (Glycine max); 250 g ai/ha
  Plant response rating, Soybean: 0
[12]; 31 g ai/ha
  Plant response rating, Galium: 90
[12]; 62 g ai/ha
  Plant response rating, Galium: 90
[12]; 125 g ai/ha
  Plant response rating, Galium: 100
[12]; 250 g ai/ha
  Plant response rating, Galium: 100
[13]; 31 g ai/ha
  Plant response rating, Pigweed: 85
[13]; 62 g ai/ha
  Plant response rating, Pigweed: 80
[13]; 125 g ai/ha
  Plant response rating, Pigweed: 90
[13]; 250 g ai/ha
  Plant response rating, Pigweed: 95
[14]; 31 g ai/ha
  Plant response rating, Morningglory: 10
[14]; 62 g ai/ha
  Plant response rating, Morningglory: 40
[14]; 125 g ai/ha
  Plant response rating, Morningglory: 60
[14]; 250 g ai/ha
  Plant response rating, Morningglory: 70
[15]; 31 g ai/ha
  Plant response rating, Blackgrass: 50
[15]; 62 g ai/ha
  Plant response rating, Blackgrass: 50
[15]; 125 g ai/ha
  Plant response rating, Blackgrass: 80
[15]; 250 g ai/ha
  Plant response rating, Blackgrass: 80

## CN1CC(c2ccc(C(F)(F)F)c(F)c2)C(C(=O)Nc2ccccc2F)C1=O (stereo not drawn) [Compound 399]
[1]; 62 g ai/ha
  Plant response rating, Waterhemp: 80
[1]; 125 g ai/ha
  Plant response rating, Waterhemp: 90
[1]; 250 g ai/ha
  Plant response rating, Waterhemp: 98
[2]; 31 g ai/ha
  Plant response rating, Barnyardgrass: 95
[2]; 62 g ai/ha
  Plant response rating, Barnyardgrass: 98
[2]; 125 g ai/ha
  Plant response rating, Barnyardgrass: 100
[2]; 250 g ai/ha
  Plant response rating, Barnyardgrass: 98
[3]; 31 g ai/ha
  Plant response rating, Oilseed Rape: 35
[3]; 62 g ai/ha
  Plant response rating, Oilseed Rape: 30
[3]; 125 g ai/ha
  Plant response rating, Oilseed Rape: 70
[3]; 250 g ai/ha
  Plant response rating, Oilseed Rape: 85
[4]; 62 g ai/ha
  Plant response rating, Wheat: 15
[4]; 125 g ai/ha
  Plant response rating, Wheat: 80
[4]; 250 g ai/ha
  Plant response rating, Wheat: 75
[5]; 31 g ai/ha
  Plant response rating, Foxtail, Giant: 95
[5]; 62 g ai/ha
  Plant response rating, Foxtail, Giant: 95
[5]; 125 g ai/ha
  Plant response rating, Foxtail, Giant: 98
[5]; 250 g ai/ha
  Plant response rating, Foxtail, Giant: 98
[6]; 31 g ai/ha
  Plant response rating, Lambsquarters: 90
[6]; 62 g ai/ha
  Plant response rating, Lambsquarters: 85
[6]; 125 g ai/ha
  Plant response rating, Lambsquarters: 85
[6]; 250 g ai/ha
  Plant response rating, Lambsquarters: 98
[7]; 31 g ai/ha
  Plant response rating, Ragweed: 50
[7]; 62 g ai/ha
  Plant response rating, Ragweed: 50
[7]; 125 g ai/ha
  Plant response rating, Ragweed: 65
[7]; 250 g ai/ha
  Plant response rating, Ragweed: 80
[8]; 31 g ai/ha
  Plant response rating, Crabgrass, Large: 98
[8]; 62 g ai/ha
  Plant response rating, Crabgrass, Large: 98
[8]; 125 g ai/ha
  Plant response rating, Crabgrass, Large: 100
[8]; 250 g ai/ha
  Plant response rating, Crabgrass, Large: 100
[9]; 31 g ai/ha
  Plant response rating, Nutsedge, Yellow: 0
[9]; 62 g ai/ha
  Plant response rating, Nutsedge, Yellow: 0
[9]; 125 g ai/ha
  Plant response rating, Nutsedge, Yellow: 0
[9]; 250 g ai/ha
  Plant response rating, Nutsedge, Yellow: 0
[10]; 62 g ai/ha
  Plant response rating, Ryegrass, Italian: 50
[10]; 125 g ai/ha
  Plant response rating, Ryegrass, Italian: 75
[10]; 250 g ai/ha
  Plant response rating, Ryegrass, Italian: 50
Corn (Zea mays); 31 g ai/ha
  Plant response rating, Corn: 35
Corn (Zea mays); 62 g ai/ha
  Plant response rating, Corn: 40
Corn (Zea mays); 125 g ai/ha
  Plant response rating, Corn: 65
Corn (Zea mays); 250 g ai/ha
  Plant response rating, Corn: 60
[11]; 62 g ai/ha
  Plant response rating, Velvetleaf: 20
[11]; 125 g ai/ha
  Plant response rating, Velvetleaf: 50
[11]; 250 g ai/ha
  Plant response rating, Velvetleaf: 60
Soybean (Glycine max); 62 g ai/ha
  Plant response rating, Soybean: 0
Soybean (Glycine max); 125 g ai/ha
  Plant response rating, Soybean: 0
Soybean (Glycine max); 250 g ai/ha
  Plant response rating, Soybean: 0
[12]; 31 g ai/ha
  Plant response rating, Galium: 80
[12]; 62 g ai/ha
  Plant response rating, Galium: 85
[12]; 125 g ai/ha
  Plant response rating, Galium: 90
[12]; 250 g ai/ha
  Plant response rating, Galium: 90
[13]; 31 g ai/ha
  Plant response rating, Pigweed: 70
[13]; 62 g ai/ha
  Plant response rating, Pigweed: 75
[13]; 125 g ai/ha
  Plant response rating, Pigweed: 90
[13]; 250 g ai/ha
  Plant response rating, Pigweed: 95
[14]; 31 g ai/ha
  Plant response rating, Morningglory: 40
[14]; 62 g ai/ha
  Plant response rating, Morningglory: 40
[14]; 125 g ai/ha
  Plant response rating, Morningglory: 30
[14]; 250 g ai/ha
  Plant response rating, Morningglory: 55
[15]; 31 g ai/ha
  Plant response rating, Blackgrass: 50
[15]; 62 g ai/ha
  Plant response rating, Blackgrass: 80
[15]; 125 g ai/ha
  Plant response rating, Blackgrass: 70
[15]; 250 g ai/ha
  Plant response rating, Blackgrass: 90
